Molecular target: T1, human full-length MKNK1 (Homo sapiens, UniProt Q9BUB5, T385D)
T1 construct: GST (N); purchased Carna Biosciences 02-145; host or cells: insect cells (baculovirus expression system)
Experiment: MKNK1 kinase high ATP assay (TR-FRET)
Assay type: biochemical
Conditions: high ATP (2 mM final), 15 min preincubation with enzyme
Protocol: MKNK1-inhibitory activity at high ATP of compounds of the present invention after their preincubation with MKNK1 was quantified employing the TR-FRET-based MKNK1 high ATP assay as described in the following paragraphs.
A recombinant fusion protein of Glutathione-S-Transferase (GST, N-terminally) and human full-length MKNK1 (amino acids 1-424 and T344D of accession number BAA 19885.1), expressed in insect cells using baculovirus expression system and purified via glutathione sepharose affinity chromatography, was purchased from Carna Biosciences (product no 02-145) and used as enzyme. As substrate for the kinase reaction the biotinylated peptide biotin-Ahx-IKKRKLTRRKSLKG (C-terminus in amide form) was used, which can be purchased e.g. from the company Biosyntan (Berlin-Buch, Germany).
For the assay 50 nL of a 100 fold concentrated solution of the test compound in DMSO was pipetted into a black low volume 384 well microtiter plate (Greiner Bio-One, Frickenhausen, Germany), 2 μL of a solution of MKNK1 in aqueous assay buffer [50 mM HEPES pH 7.5, 5 mM MgCl2, 1.0 mM dithiothreitol, 0.005% (v/v) Nonidet-P40 (Sigma)] was added and the mixture was incubated for 15 min at 22° C. to allow pre-binding of the test compounds to the enzyme before the start of the kinase reaction. Then the kinase reaction was started by the addition of 3 μL of a solution of adenosine-tri-phosphate (ATP, 3.3 mM=>final conc. in the 5 μL assay volume is 2 mM) and substrate (0.1 μM=>final conc. in the 5 μL assay volume is 0.06 μM) in assay buffer and the resulting mixture was incubated for a reaction time of 30 min at 22° C. The concentration of MKNK1 was adjusted depending of the activity of the enzyme lot and was chosen appropriate to have the assay in the linear range, typical concentrations were in the range of 0.003 μg/mL. The reaction was stopped by the addition of 5 μL of a solution of TR-FRET detection reagents (5 nM streptavidine-XL665 [Cisbio Bioassays, Codolet, France] and 1 nM anti-ribosomal protein S6 (pSer236)-antibody from Invitrogen [#44921G] and 1 nM LANCE EU-W1024 labeled ProteinG [Perkin-Elmer, product no. AD0071]) in an aqueous EDTA-solution (100 mM EDTA, 0.1% (w/v) bovine serum albumin in 50 mM HEPES pH 7.5).
The resulting mixture was incubated for 1 h at 22° C. to allow the formation of complex between the phosphorylated biotinylated peptide and the detection reagents. Subsequently the amount of phosphorylated substrate was evaluated by measurement of the resonance energy transfer from the Eu-chelate to the streptavidine-XL. Therefore, the fluorescence emissions at 620 nm and 665 nm after excitation at 350 nm were measured in a TR-FRET reader, e.g. a Rubystar (BMG Labtechnologies, Offenburg, Germany) or a Viewlux (Perkin-Elmer). The ratio of the emissions at 665 nm and at […] was taken as the measure for the amount of phosphorylated substrate. The data were normalised (enzyme reaction without inhibitor=0% inhibition, all other assay components but no enzyme=100% inhibition).

T1 sequence (Q9BUB5 1-424 isoform Q9BUB5-2 T344D): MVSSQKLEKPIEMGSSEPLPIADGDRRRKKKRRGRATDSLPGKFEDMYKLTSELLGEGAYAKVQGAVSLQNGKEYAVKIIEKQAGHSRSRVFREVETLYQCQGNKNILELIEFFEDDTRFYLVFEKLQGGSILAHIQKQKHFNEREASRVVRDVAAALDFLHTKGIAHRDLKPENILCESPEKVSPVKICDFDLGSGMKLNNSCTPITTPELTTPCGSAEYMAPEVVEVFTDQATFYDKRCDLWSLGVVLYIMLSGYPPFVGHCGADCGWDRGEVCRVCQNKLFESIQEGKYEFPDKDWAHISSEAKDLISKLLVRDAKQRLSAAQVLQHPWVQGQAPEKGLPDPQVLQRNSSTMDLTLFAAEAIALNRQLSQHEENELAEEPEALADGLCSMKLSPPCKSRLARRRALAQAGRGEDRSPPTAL

SMILES	IC50
CCc1c[nH]c2ncnc(Nc3ccc4[nH]ncc4c3)c12 [Example 40, 5-Ethyl-N-(1H-indazol-5-yl)-7H-pyrrolo[2,3-d]pyrimidin-4-amine]	0.029 µM
OCc1c[nH]c2ncnc(Nc3ccc4[nH]ncc4c3)c12 [Example 41, [4-(1H-indazol-5-ylamino)-7H-pyrrolo[2,3-d]pyrimidin-5-yl]methanol]	0.037 µM
O=C(c1[nH]c2ncnc(Nc3ccc4[nH]ncc4c3)c2c1Br)N1CCCCC1 [Example 45, [5-Bromo-4-(1H-indazol-5-ylamino)-7H-pyrrolo[2,3-d]pyrimidin-6-yl](piperidin-1-yl)methanone]	0.045 µM

Other lines, results leading:

IC50	SMILES
0.058 µM	C[C@@H]1COCCN1C(=O)c1[nH]c2ncnc(Nc3ccc4[nH]ncc4c3)c2c1Br [Example 42, [5-Bromo-4-(1H-indazol-5-ylamino)-7H-pyrrolo[2,3-d]pyrimidin-6-yl][(3R)-3-methylmorpholin-4-yl]methanone]
0.075 µM	C[C@H]1COCCN1C(=O)c1[nH]c2ncnc(Nc3ccc4[nH]ncc4c3)c2c1Br [Example 43, [5-Bromo-4-(1H-indazol-5-ylamino)-7H-pyrrolo[2,3-d]pyrimidin-6-yl][(3S)-3-methylmorpholin-4-yl]methanone]
0.048 µM	O=C(c1[nH]c2ncnc(Nc3ccc4[nH]ncc4c3)c2c1Br)N1CCOCC1 [Example 44, [5-Bromo-4-(1H-indazol-5-ylamino)-7H-pyrrolo[2,3-d]pyrimidin-6-yl](morpholin-4-yl)methanone]

Source: patent US20150218173A1, “SUBSTITUTED INDAZOL-PYRROLOPYRIMIDINES USEFUL IN THE TREATMENT OF HYPERFOLIFERATIVE DISORDERS” (BAYER PHARMA AKTIENGESELLSCHAFT, priority 2012, published 2015)
